Results from paper PMC10114980, “Triple targeting of mutant EGFR^L858R/T790M, COX-2, and 15-LOX: design and synthesis of novel quinazolinone tethered phenyl urea derivatives for anti-inflammatory and anticancer evaluation” (Journal of Enzyme Inhibition and Medicinal Chemistry, 2023).

Columns and labels:
SN12C = experiment: NCI single dose screen, SN12C; assay type: cell-based; conditions: Homo sapiens, renal cancer, single dose 10^−5 M, read-out: growth inhibition percentage
Protocol: (§1) Screening of the anticancer activity of the newly synthesised compounds (6a, 6c, 6d, 6e, 6j, 6l, 6m, 6n, 6o, and 6p) was performed by the US National Cancer Institute (NCI) using 60 different human tumour cell lines in accordance with standard procedures formerly reported.
(§2) In vitro anticancer screening was carried out for the selected compounds at a single dose (10^−5 M) against 60 different human tumour cell lines of nine different cancer cell types: leukaemia, lung, colon, CNS, melanoma, ovarian, renal, prostate, and breast cancers.

COLO 205 = experiment: NCI single dose screen, COLO 205; assay type: cell-based; conditions: Homo sapiens; COLO 205, colon cancer; single dose 10^−5 M; read-out: growth inhibition percentage
Protocol: as §1, §2

UACC-62 = experiment: NCI single dose screen, UACC-62; assay type: cell-based; conditions: Homo sapiens; UACC-62, melanoma; single dose 10^−5 M; read-out: growth inhibition percentage
Protocol: as §1, §2

MDA-MB-435 = experiment: NCI single dose screen, MDA-MB-435; assay type: cell-based; conditions: Homo sapiens; MDA-MB-435, melanoma; single dose 10^−5 M; read-out: growth inhibition percentage
Protocol: as §1, §2

SF-268 = experiment: NCI single dose screen, SF-268; assay type: cell-based; conditions: Homo sapiens; SF-268, CNS cancer; single dose 10^−5 M; read-out: growth inhibition percentage
Protocol: as §1, §2

NCI-H322M = experiment: NCI single dose screen, NCI-H322M; assay type: cell-based; conditions: Homo sapiens, non-small cell lung cancer, single dose 10^−5 M, read-out: growth inhibition percentage
Protocol: as §1, §2

PC-3 = experiment: NCI single dose screen, PC-3; assay type: cell-based; conditions: Homo sapiens; PC-3, prostate cancer; single dose 10^−5 M; read-out: growth inhibition percentage
Protocol: as §1, §2

SF-539 = experiment: NCI single dose screen, SF-539; assay type: cell-based; conditions: Homo sapiens, read-out: growth inhibition percentage
Protocol: as §1, §2

[1] = system: LPS-induced NO production in RAW 264.7 cells; experiment: NO production in LPS-activated RAW 264.7 macrophage cells (DAF-FM diacetate); assay type: cell-based; conditions: LPS-activated RAW 264.7 cells, mean ± SEM, three replicates; for IC50: Mus musculus, RAW264.7
Protocol: (§3) TNF-α and IL-6 production were detected in RAW 264.7 macrophage cell culture supernatants following the induction of inflammation by LPS. Moreover, the probes of oxidative species 2,7-dichlorofluorescein diacetate (DCFH-DA) (Molecular Probes) and NO, 4-amino-5-methylamino-2,7-difluorofluorescein diacetate (DAF-FM diacetate) (Molecular Probes) were used to investigate the antioxidant and NO production inhibitory potential of the test compounds. Briefly, RAW 264.7 cells were cultured in black 96 well plates (200 000 cells/mL, 100 µl/well) for 24 h followed by the incubation with the individual test compounds or the reference drugs at different concentrations (12.5, 25, 50, and 100 µM) for 2 h at 37 °C. LPS was then added at a final concentration of 1 µg/mL for an additional 18 h. The cell culture supernatant was collected from cells treated with the different compounds at 25 µM to measure TNF-α and IL-6 levels (1:10 dilution) using DuoSet ELISA kits (R&D Systems, Minneapolis, MN) following the manufacturer’s instructions. Then, the plates were washed to perform ROS and NO detection assays as detailed in our previous studies[16]^,[27].

MDA-MB-468 = experiment: NCI single dose screen, MDA-MB-468; assay type: cell-based; conditions: Homo sapiens; MDA-MB-468, breast cancer; single dose 10^−5 M; read-out: growth inhibition percentage
Protocol: as §1, §2

OVCAR-8 = experiment: NCI single dose screen, OVCAR-8; assay type: cell-based; conditions: Homo sapiens; OVCAR-8, ovarian cancer; single dose 10^−5 M; read-out: growth inhibition percentage
Protocol: as §1, §2

IGROV1 = experiment: NCI single dose screen, IGROV1; assay type: cell-based; conditions: Homo sapiens, IGROV-1; IGROV1, ovarian cancer; single dose 10^−5 M; read-out: growth inhibition percentage
Protocol: as §1, §2

EKVX = experiment: NCI single dose screen, EKVX; assay type: cell-based; conditions: Homo sapiens, non-small cell lung cancer, single dose 10^−5 M, read-out: growth inhibition percentage
Protocol: as §1, §2

HOP-62 = experiment: NCI single dose screen, HOP-62; assay type: cell-based; conditions: Homo sapiens; HOP-62, non-small cell lung cancer; single dose 10^−5 M; read-out: growth inhibition percentage
Protocol: as §1, §2

[2] = system: LPS-induced ROS production in RAW 264.7 cells; experiment: ROS production in LPS-activated RAW 264.7 macrophage cells (DCFH-DA); assay type: cell-based; conditions: LPS-activated RAW 264.7 cells, mean ± SEM, three replicates; for IC50: Mus musculus, RAW264.7
Protocol: as §3

NCI-H460 = experiment: NCI single dose screen, NCI-H460; assay type: cell-based; conditions: Homo sapiens; NCI-H460, non-small cell lung cancer; single dose 10^−5 M; read-out: growth inhibition percentage
Protocol: as §1, §2

soybean 15-LOX = target: T1, soybean 15-LOX (Glycine max, UniProt P08170); experiment: 15-LOX inhibitor screening assay (Cayman); assay type: biochemical; conditions: mean ± SEM, n = 3 replicates
T1 sequence (P08170 1-839): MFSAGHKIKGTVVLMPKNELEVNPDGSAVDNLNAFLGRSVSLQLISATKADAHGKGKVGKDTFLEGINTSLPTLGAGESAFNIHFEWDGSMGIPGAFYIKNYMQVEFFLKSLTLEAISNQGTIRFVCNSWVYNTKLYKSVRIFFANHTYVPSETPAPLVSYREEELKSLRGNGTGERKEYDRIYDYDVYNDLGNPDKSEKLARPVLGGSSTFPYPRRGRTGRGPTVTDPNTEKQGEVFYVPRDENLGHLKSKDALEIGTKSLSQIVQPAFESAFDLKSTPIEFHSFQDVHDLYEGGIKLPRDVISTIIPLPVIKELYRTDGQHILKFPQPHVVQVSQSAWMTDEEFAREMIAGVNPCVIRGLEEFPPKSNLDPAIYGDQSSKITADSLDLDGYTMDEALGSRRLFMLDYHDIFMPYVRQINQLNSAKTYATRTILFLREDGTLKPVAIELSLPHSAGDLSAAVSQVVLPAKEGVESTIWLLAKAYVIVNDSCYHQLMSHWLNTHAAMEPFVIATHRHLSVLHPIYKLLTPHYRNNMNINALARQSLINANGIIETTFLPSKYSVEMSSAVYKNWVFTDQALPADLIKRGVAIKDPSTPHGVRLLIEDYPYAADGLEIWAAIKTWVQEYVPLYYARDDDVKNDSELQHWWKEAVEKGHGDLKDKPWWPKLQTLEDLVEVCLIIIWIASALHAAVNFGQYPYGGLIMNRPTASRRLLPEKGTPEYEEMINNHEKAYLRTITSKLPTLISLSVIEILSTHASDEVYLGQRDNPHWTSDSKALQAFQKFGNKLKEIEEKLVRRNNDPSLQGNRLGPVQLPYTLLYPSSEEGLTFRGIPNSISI

SMILES | inhibition at 10 µM (SN12C) [%] | inhibition at 10 µM (COLO 205) [%] | inhibition at 10 µM (UACC-62) [%] | inhibition at 10 µM (MDA-MB-435) [%] | inhibition at 10 µM (SF-268) [%] | inhibition at 10 µM (NCI-H322M) [%] | inhibition at 10 µM (PC-3) [%] | inhibition at 10 µM (SF-539) [%] | NO IC50 [1] | IC50 [1] [µM] | inhibition at 10 µM (MDA-MB-468) [%] | inhibition at 10 µM (OVCAR-8) [%] | inhibition at 10 µM (IGROV1) [%] | melting point [°C] | inhibition at 10 µM (EKVX) [%] | inhibition at 10 µM (HOP-62) [%] | ROS IC50 [2] | IC50 [2] [µM] | inhibition at 10 µM (NCI-H460) [%] | IC50 (soybean 15-LOX) [µM]
CN1c2ccccc2C(=O)N(NC(=O)Nc2ccccc2)C1c1ccc([N+](=O)[O-])cc1 (centres unmarked) [Compound 6e, 1-(1-Methyl-2-(4-nitrophenyl)-4-oxo-1,4-dihydroquinazolin-3(2H)-yl)-3-phenylurea] | < 10 | < 10 | < 10 | < 10 | < 10 | < 10 | < 10 | < 10 | did not show any significant NO inhibitory activity | > 100 | < 10 | < 10 | < 10 | 241 to 243 | < 10 | < 10 | neither compound 6e nor compound 6g inhibited ROS production significantly | > 100 | < 10 | 1.76 ± 0.27
CN1c2ccccc2C(=O)N(NC(=O)Nc2ccc(F)cc2)C1c1ccccc1 (centres unmarked) [Compound 6m, 1-(4-Fluorophenyl)-3-(1-methyl-4-oxo-2-phenyl-1,4-dihydroquinazolin-3(2H)-yl)urea] | < 10 | < 10 | 20.7 | < 10 | < 10 | < 10 | 22.1 | < 10 | – | 10.3 ± 0.27 | < 10 | < 10 | < 10 | 220 to 222 | 10.5 | < 10 | – | 57.2 ± 1 | < 10 | 2.23 ± 0.36
CN1c2ccccc2C(=O)N(NC(=O)Nc2ccc(F)cc2)C1c1ccc(F)cc1 (centres unmarked) [Compound 6n, 1-(4-Fluorophenyl)-3-(2–(4-fluorophenyl)-1-methyl-4-oxo-1,4-dihydroquinazolin-3(2H)-yl)urea] | < 10 | < 10 | 38.1 | 25.8 | 21.7 | < 10 | 38.1 | 10.1 | – | 19.9 ± 0.71 | < 10 | < 10 | < 10 | 214 to 216 | 16.4 | 13.3 | – | 39.4 ± 2.25 | < 10 | 2 ± 0.26
CN1c2ccccc2C(=O)N(NC(=O)Nc2ccccc2)C1c1ccccc1 (centres unmarked) [Compound 6c, 1-(1-Methyl-4-oxo-2-phenyl-1,4-dihydroquinazolin-3(2H)-yl)-3-phenylurea] | < 10 | < 10 | < 10 | < 10 | < 10 | < 10 | < 10 | < 10 | – | 1.54 ± 1.02 | < 10 | < 10 | < 10 | 180 to 181 | < 10 | < 10 | – | 48.1 ± 1.07 | < 10 | 1.36 ± 0.19
COc1ccc(NC(=O)NN2C(=O)c3ccccc3N(C)C2c2ccc(OC)cc2)cc1 (centres unmarked) [Compound 6j, 1-(4-Methoxyphenyl)-3-(2-(4-methoxyphenyl)-1-methyl-4-oxo-1,4-dihydroquinazolin-3(2H)-yl)urea] | < 10 | < 10 | < 10 | < 10 | < 10 | < 10 | 10.8 | < 10 | – | 13.5 ± 0.29 | < 10 | < 10 | < 10 | 205 to 207 | < 10 | < 10 | – | 24.1 ± 1.08 | < 10 | 1.95 ± 0.35
